# Legend:
# C57BL6/J mice = assay: Short-term memory impairment caused by amyloid peptide aggregates (icv Aβ oligomers), Y maze test; format: in vivo, mouse; settings: Y maze at day 4 post Aβ
# Description: In vivo experiments were carried out according to the National Institute of Health guidelines for the care and use of laboratory animals, approved by the French Ministry for Research and Technology. In the course of experiments, animals were housed at a standard temperature (22±1° C.) and in a light-controlled environment (lights on from 7 a.m. to 8 p.m.) with ad libitum access to food and water. Male C57BL/6 mice (C57BL/6J Rj, ref. SC-CJ-12w-M, Janvier, France) were housed 5 animals per cage. From one week before the start of the experiment until the end of the experiment, mice were housed individually. Animals were monitored twice-a-day by laboratory personnel (8 a.m. and 4 p.m.). In this project, young (14 weeks old) as well as aged (15-16 months old) mice were used. Experiments were carried out using 12 mice per experimental group.
# Investigation of short-term working memory—Y maze test Y maze tests were carried out as previously described. Prior to testing, mice were brought to the experimental room for at least 30 min to acclimatize to experimental room conditions. The Y maze is made of opaque Plexiglas and each arm is 40 cm long, 16 cm high, 9 cm wide and positioned at equal angles. The apparatus was placed in the test room in such a way that it was brightened homogeneously with 12-15 lux in the arms as well as in the central zone. One mouse at a time was placed at the end of one arm and was allowed to move in the maze freely during a 5 min examination. Each arm entry was recorded with those entries being counted where the mouse completely placed its hind paws in the chosen arm. […] Results were calculated as the percentage of the ratio of actual detected alternations to possible alternations (defined as the number of total arm entries minus 2).
# For the examination of memory impairment caused by Aβ oligomers, a mouse model developed and validated by SynAging was used. […] At day 4 post Aβ treatment, short-term memory was assessed with the Y maze test. […]
# At day 4 post Aβ treatment, short-term memory was assessed with the Y maze test.
# Human 5-lipoxygenase = target: T1, Human 5-lipoxygenase (Homo sapiens, UniProt P09917); assay: 5-lipoxygenase enzyme activity, fluorescence measurement; format: biochemical
# T1 construct: host or cells: Sf9 cells
# T1 sequence (P09917 1-674): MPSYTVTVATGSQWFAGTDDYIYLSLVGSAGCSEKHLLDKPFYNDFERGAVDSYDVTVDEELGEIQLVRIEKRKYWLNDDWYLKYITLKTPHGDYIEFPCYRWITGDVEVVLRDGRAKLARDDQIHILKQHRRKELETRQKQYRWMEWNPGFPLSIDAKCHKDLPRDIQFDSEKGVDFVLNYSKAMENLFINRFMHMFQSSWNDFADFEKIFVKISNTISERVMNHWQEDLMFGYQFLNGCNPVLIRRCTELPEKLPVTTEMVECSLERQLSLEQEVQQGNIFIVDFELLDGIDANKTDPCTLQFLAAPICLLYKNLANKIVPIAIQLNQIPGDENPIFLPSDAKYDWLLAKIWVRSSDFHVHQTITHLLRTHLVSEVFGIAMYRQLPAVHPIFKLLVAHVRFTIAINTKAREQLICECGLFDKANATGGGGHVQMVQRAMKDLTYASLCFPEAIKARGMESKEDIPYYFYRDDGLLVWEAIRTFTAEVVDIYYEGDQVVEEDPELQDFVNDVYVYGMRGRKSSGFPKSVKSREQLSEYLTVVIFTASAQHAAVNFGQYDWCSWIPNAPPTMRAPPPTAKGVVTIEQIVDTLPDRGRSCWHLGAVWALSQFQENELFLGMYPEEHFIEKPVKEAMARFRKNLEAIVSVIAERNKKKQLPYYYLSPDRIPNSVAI
# Description: Human 5-lipoxygenase produced by Sf9 cells was used throughout the experiments. The enzyme was pre-incubated with 10 μM compound according to Example 2 at room temperature, then—after the addition of 25 μM arachidonic acid substrate—the amount of generated rhodamine 123 was determined by fluorescence measurement. Percentage of inhibition rate was calculated by comparison to untreated control reactions.
# [1] = tested on: BALB/c ear skin graft on C57BL/6 recipient mice; assay: Mouse skin transplantation, graft rejection scoring; format: in vivo; settings: 5 mg/kg once every day from transplantation; Example 2 orally, tacrolimus intraperitoneal; scoring at day 9 and day 10
# Description: Mouse skin transplantation is a standard method to assay host T cell responses to MHC-disparate donor antigens, which protocol was followed in the present example (Garrod and Cahalan; 2008). Briefly, WT C57BL/6 recipient mice (8-12 weeks old) and WT BALB/c donor mice (8-12 weeks old) were anesthetized with a combination of 10 mg/kg Xylazine and 100 mg/kg Ketamine administered by i.p. injection and 0.05 mg/kg Buprenorphine was administered by subcutaneous injection for analgesia. Ear skin (1.0 cm2) from the WT BALB/c donor mouse was grafted onto the flank of the WT C57BL/6 recipient. The implanted skin (graft) was covered with a sterile bandage, which was removed on day 7 post-transplant.
# Recipients received either no treatment (controls), or treated with compound according to Example 2 orally at 5 mg/kg dose, once every day until the end of the experiment from the day of transplantation. […]
# Different scores were used to define the quality of the grafts: intact grafts (Score 0), early stages of rejection (Score 1-4, corresponding to first clear signals of graft rejection: 1; >25% rejection rate: 2; >50% rejection rate: 3; >75% rejection rate: 4) up to complete graft rejection (Score 5). […] Average scores with SEM were calculated for each group.
structure (smiles),measurement,setting,value
"Cc1ccnc(N[C@H](c2ccc(C(F)(F)F)cc2)c2ccc3cccnc3c2O)n1 [Example 2, 7-[(R)-[(4-Methylpyrimidin-2-yl)amino][4-(trifluoromethyl)phenyl]methyl]quinolin-8-ol]",inhibition of short-term memory impairment caused by fibrillar aggregates of amyloid peptides,C57BL6/J mice; 4 mg/kg body weight per os once daily for four days,inhibited
same,"inhibition of short-term memory impairment caused by fibrillar aggregates of amyloid peptides, dose dependence","C57BL6/J mice; 0.5, 2 and 4 mg/kg body weight per os once daily for four days",in a dose-dependent manner
same,inhibition of 5-lipoxygenase enzyme (concentration range in words),Human 5-lipoxygenase,inhibits in micromolar concentration
same,inhibition at 10 µM,"Human 5-lipoxygenase; 10 μM concentration, 25 μM arachidonic acid substrate",54%
same,skin graft rejection score (0-5),[1],smaller score values both on day 9 and on day 10

# From patent publication US10287265B2, “Enantiomers of 8-hydroxyquinoline derivatives and the synthesis thereof” (AVIDIN Co. Ltd., priority 2015, dated 2019)
